Source: ChEMBL document CHEMBL1201862, “PubChem BioAssay data set” (2004)
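Step 1: Grow cells in 96-well plates. Step 2: Expose to compound for 48 hours at 5 concentrations. Step 3: Interpolate endpoints linearly; if unreached, use highest concentration. The concentration for 50% growth inhibition is given as GI50.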 Activity calls are given as the source filed them. Rule as the data show it: active = GI50 up to about 1.1 µM and inactive = higher.

Columns and labels:
Assay in all cases: NCI tumour cell line growth inhibition, 48 h
[1] = system: SF-539
[2] = system: HL-60
[3] = system: KM12
[4] = system: T47D
[5] = system: HOP-62
[6] = system: M14
[7] = system: HCT-116
[8] = system: SK-MEL-28
[9] = system: A498
[10] = system: NCI-H522
[11] = system: K562
[12] = system: NCI-H460
[13] = system: HOP-92
[14] = system: HT-29
[15] = system: OVCAR-4
[16] = system: OVCAR-8
[17] = system: RXF 393
[18] = system: OVCAR-5
[19] = system: MCF7
[20] = system: NCI/ADR-RES
[21] = system: UACC-62
[22] = system: U-251
[23] = system: HCT-15
[24] = system: BT-549
[25] = system: MDA-MB-231
[26] = system: SNB-19
[27] = system: PC-3
[28] = system: MDA-MB-435
[29] = system: UO-31
[30] = system: MOLT-4
[31] = system: CAKI-1
[32] = system: NCI-H226
[33] = system: NCI-H23
[34] = system: SNB-75
[35] = system: MDA-N
[36] = system: UACC-257
[37] = system: Hs-578T
[38] = system: HCC 2998
[39] = system: COLO 205
[40] = system: RPMI-8226
[41] = system: OVCAR-3
[42] = system: SF-268
[43] = system: IGROV-1
[44] = system: DU-145
[45] = system: SN12C
[46] = system: LOX IMVI
[47] = system: SK-MEL-5
[48] = system: SW-620
[49] = system: EKVX
[50] = system: 786-0
[51] = system: ACHN
[52] = system: CCRF-CEM
[53] = system: A549
[54] = system: SK-MEL-2
[55] = system: TK-10
[56] = system: SK-OV-3
[57] = system: SF-295
[58] = system: Malme-3M
[59] = system: SR

Structure (SMILES): CC(=O)Nc1[nH]c(C#N)nc1C#N
- GI50 [1]: > 100 µM (inactive)
- GI50 [2]: > 100 µM (inactive)
- GI50 [3]: > 100 µM (inactive)
- GI50 [4]: > 100 µM (inactive)
- GI50 [5]: > 100 µM (inactive)
- GI50 [6]: > 100 µM (inactive)
- GI50 [7]: > 100 µM (inactive)
- GI50 [8]: > 100 µM (inactive)
- GI50 [9]: > 100 µM (inactive)
- GI50 [10]: > 100 µM (inactive)
- GI50 [11]: > 100 µM (inactive)
- GI50 [12]: > 100 µM (inactive)
- GI50 [13]: > 100 µM (inactive)
- GI50 [14]: > 100 µM (inactive)
- GI50 [15]: > 100 µM (inactive)
- GI50 [16]: > 100 µM (inactive)
- GI50 [17]: > 100 µM (inactive)
- GI50 [18]: > 100 µM (inactive)
- GI50 [19]: > 100 µM (inactive)
- GI50 [20]: > 100 µM (inactive)
- GI50 [21]: > 100 µM (inactive)
- GI50 [22]: > 100 µM (inactive)
- GI50 [23]: > 100 µM
- GI50 [24]: > 100 µM (inactive)
- GI50 [25]: > 100 µM (inactive)
- GI50 [26]: > 100 µM (inactive)
- GI50 [27]: > 100 µM (inactive)
- GI50 [28]: > 100 µM (inactive)
- GI50 [29]: > 100 µM (inactive)
- GI50 [30]: > 100 µM (inactive)
- GI50 [31]: > 100 µM (inactive)
- GI50 [32]: > 100 µM (inactive)
- GI50 [33]: > 100 µM (inactive)
- GI50 [34]: > 100 µM (inactive)
- GI50 [35]: > 100 µM (inactive)
- GI50 [36]: > 100 µM (inactive)
- GI50 [37]: > 100 µM (inactive)
- GI50 [38]: > 100 µM (inactive)
- GI50 [39]: > 100 µM (inactive)
- GI50 [40]: > 100 µM (inactive)
- GI50 [41]: > 100 µM (inactive)
- GI50 [42]: > 100 µM (inactive)
- GI50 [43]: > 100 µM (inactive)
- GI50 [44]: > 100 µM (inactive)
- GI50 [45]: > 100 µM (inactive)
- GI50 [46]: > 100 µM (inactive)
- GI50 [47]: > 100 µM (inactive)
- GI50 [48]: > 100 µM (inactive)
- GI50 [49]: > 100 µM (inactive)
- GI50 [50]: > 100 µM (inactive)
- GI50 [51]: > 100 µM (inactive)
- GI50 [52]: > 100 µM (inactive)
- GI50 [53]: > 100 µM (inactive)
- GI50 [54]: > 100 µM (inactive)
- GI50 [55]: > 100 µM (inactive)
- GI50 [56]: > 100 µM (inactive)
- GI50 [57]: > 100 µM (inactive)
- GI50 [58]: > 100 µM (inactive)

Structure (SMILES): CN(/N=C/c1cccs1)c1ccc([N+](=O)[O-])cc1[N+](=O)[O-]
- GI50 [1]: > 100 µM (inactive)
- GI50 [2]: > 100 µM (inactive)
- GI50 [3]: > 100 µM (inactive)
- GI50 [4]: > 100 µM (inactive)
- GI50 [5]: > 100 µM (inactive)
- GI50 [6]: > 100 µM (inactive)
- GI50 [7]: > 100 µM (inactive)
- GI50 [8]: > 100 µM (inactive)
- GI50 [10]: > 100 µM (inactive)
- GI50 [11]: > 100 µM (inactive)
- GI50 [12]: > 100 µM (inactive)
- GI50 [14]: > 100 µM (inactive)
- GI50 [15]: > 100 µM (inactive)
- GI50 [16]: > 100 µM (inactive)
- GI50 [59]: > 100 µM (inactive)
- GI50 [17]: > 100 µM (inactive)
- GI50 [19]: > 100 µM (inactive)
- GI50 [20]: > 100 µM (inactive)
- GI50 [21]: > 100 µM (inactive)
- GI50 [22]: > 100 µM (inactive)
- GI50 [23]: > 100 µM
- GI50 [24]: > 100 µM (inactive)
- GI50 [25]: > 100 µM (inactive)
- GI50 [26]: > 100 µM (inactive)
- GI50 [27]: > 100 µM (inactive)
- GI50 [28]: > 100 µM (inactive)
- GI50 [29]: > 100 µM (inactive)
- GI50 [30]: > 100 µM (inactive)
- GI50 [31]: > 100 µM (inactive)
- GI50 [33]: > 100 µM (inactive)
- GI50 [34]: 77.8 µM (inactive)
- GI50 [35]: > 100 µM (inactive)
- GI50 [36]: > 100 µM (inactive)
- GI50 [37]: > 100 µM (inactive)
- GI50 [38]: > 100 µM (inactive)
- GI50 [39]: > 100 µM (inactive)
- GI50 [40]: > 100 µM (inactive)
- GI50 [41]: > 100 µM (inactive)
- GI50 [42]: > 100 µM (inactive)
- GI50 [43]: > 100 µM (inactive)
- GI50 [44]: > 100 µM (inactive)
- GI50 [45]: > 100 µM (inactive)
- GI50 [47]: > 100 µM (inactive)
- GI50 [48]: > 100 µM (inactive)
- GI50 [49]: > 100 µM (inactive)
- GI50 [50]: > 100 µM (inactive)
- GI50 [51]: > 100 µM (inactive)
- GI50 [52]: > 100 µM (inactive)
- GI50 [53]: > 100 µM (inactive)
- GI50 [55]: > 100 µM (inactive)
- GI50 [56]: > 100 µM (inactive)
- GI50 [57]: > 100 µM (inactive)

Structure (SMILES): O=C(O)C1OC1(c1cccc(Cl)c1)c1ccccc1Cl (stereo not drawn)
- GI50 [1]: 25.9 µM (inactive)
- GI50 [2]: 17.2 µM (inactive)
- GI50 [3]: 29.6 µM (inactive)
- GI50 [4]: 20.7 µM (inactive)
- GI50 [5]: 23.9 µM (inactive)
- GI50 [6]: 18.8 µM (inactive)
- GI50 [7]: 19 µM (inactive)
- GI50 [8]: 22.1 µM (inactive)
- GI50 [9]: 79.1 µM (inactive)
- GI50 [10]: 24.5 µM (inactive)
- GI50 [11]: 16.7 µM (inactive)
- GI50 [12]: 42.7 µM (inactive)
- GI50 [13]: 23.1 µM (inactive)
- GI50 [14]: 25.9 µM (inactive)
- GI50 [15]: 23.5 µM (inactive)
- GI50 [16]: 32.1 µM (inactive)
- GI50 [17]: 27.4 µM (inactive)
- GI50 [18]: 58.7 µM (inactive)
- GI50 [19]: 29.4 µM (inactive)
- GI50 [20]: 18.1 µM (inactive)
- GI50 [21]: 14.8 µM (inactive)
- GI50 [22]: 11.1 µM (inactive)
- GI50 [23]: 6.76 µM
- GI50 [24]: 18.8 µM (inactive)
- GI50 [25]: 18.1 µM (inactive)
- GI50 [26]: 33.9 µM (inactive)
- GI50 [27]: 21.8 µM (inactive)
- GI50 [28]: 22.9 µM (inactive)
- GI50 [29]: 20.8 µM (inactive)
- GI50 [30]: 27.5 µM (inactive)
- GI50 [31]: 20.5 µM (inactive)
- GI50 [32]: 38.2 µM (inactive)
- GI50 [33]: 20.8 µM (inactive)
- GI50 [34]: 19.9 µM (inactive)
- GI50 [35]: 23.6 µM (inactive)
- GI50 [36]: 26.6 µM (inactive)
- GI50 [37]: 25.4 µM (inactive)
- GI50 [38]: 25.9 µM (inactive)
- GI50 [39]: 53.3 µM (inactive)
- GI50 [40]: 31.1 µM (inactive)
- GI50 [41]: 16.1 µM (inactive)
- GI50 [42]: 20.6 µM (inactive)
- GI50 [43]: 34.9 µM (inactive)
- GI50 [44]: 26.1 µM (inactive)
- GI50 [45]: 23 µM (inactive)
- GI50 [46]: 18 µM (inactive)
- GI50 [47]: 20 µM (inactive)
- GI50 [48]: 20.7 µM (inactive)
- GI50 [49]: 25.4 µM (inactive)
- GI50 [50]: 43.1 µM (inactive)
- GI50 [51]: 31.7 µM (inactive)
- GI50 [52]: 11.2 µM (inactive)
- GI50 [53]: 35.8 µM (inactive)
- GI50 [54]: 15.7 µM (inactive)
- GI50 [55]: 31.5 µM (inactive)
- GI50 [56]: 22.5 µM (inactive)
- GI50 [57]: 25.7 µM (inactive)
- GI50 [58]: 19.7 µM (inactive)
